We go through one compound from BindingDB's records for doi:10.1021/bi020016x (Weizmann Institute of Science, 2002).

Assay [1] addresses Acetylcholinesterase (Homo sapiens, UniProt P22303). The experiment in a line: Enzyme Inhibition Assay. Particulars: pH 7.5; 25 °C. How it is done: (§1) The cholinesterase assays were performed using colorimetric method reported by Ellman. Enzyme activity was determined by measuring the absorbance at 412 nm for 2 min, relative to the drug-free control. Triplicate measurements were carried out at a total of 8 drug concentrations. The IC50 values were determined from a plot of percentage of inhibition vs -log [drug].

Assay [2] deals with Acetylcholinesterase (Tetronarce californica, UniProt P04058). The assay can be described thus: Enzyme Inhibition Assay. Particulars: pH 7.5; 25 °C. How it is done:
as §1

Sequence of Acetylcholinesterase (Homo sapiens, UniProt P22303) (P22303 whole entry): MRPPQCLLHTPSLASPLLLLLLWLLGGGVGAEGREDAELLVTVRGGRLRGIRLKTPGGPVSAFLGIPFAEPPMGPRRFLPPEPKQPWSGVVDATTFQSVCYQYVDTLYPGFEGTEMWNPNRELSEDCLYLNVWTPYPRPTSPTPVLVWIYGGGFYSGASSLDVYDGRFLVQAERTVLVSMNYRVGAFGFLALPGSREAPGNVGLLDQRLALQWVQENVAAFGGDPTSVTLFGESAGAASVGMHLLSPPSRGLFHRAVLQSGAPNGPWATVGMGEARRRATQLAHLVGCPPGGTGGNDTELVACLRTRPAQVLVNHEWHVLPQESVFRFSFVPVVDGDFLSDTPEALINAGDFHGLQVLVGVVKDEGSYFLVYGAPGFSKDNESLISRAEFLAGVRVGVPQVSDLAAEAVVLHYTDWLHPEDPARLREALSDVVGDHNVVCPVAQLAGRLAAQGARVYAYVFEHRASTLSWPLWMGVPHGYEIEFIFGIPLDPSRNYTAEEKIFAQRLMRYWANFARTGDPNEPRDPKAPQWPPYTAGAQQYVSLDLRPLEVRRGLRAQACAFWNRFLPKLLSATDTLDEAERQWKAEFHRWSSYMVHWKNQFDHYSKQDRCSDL
Sequence of Acetylcholinesterase (Tetronarce californica, UniProt P04058) (P04058 whole entry): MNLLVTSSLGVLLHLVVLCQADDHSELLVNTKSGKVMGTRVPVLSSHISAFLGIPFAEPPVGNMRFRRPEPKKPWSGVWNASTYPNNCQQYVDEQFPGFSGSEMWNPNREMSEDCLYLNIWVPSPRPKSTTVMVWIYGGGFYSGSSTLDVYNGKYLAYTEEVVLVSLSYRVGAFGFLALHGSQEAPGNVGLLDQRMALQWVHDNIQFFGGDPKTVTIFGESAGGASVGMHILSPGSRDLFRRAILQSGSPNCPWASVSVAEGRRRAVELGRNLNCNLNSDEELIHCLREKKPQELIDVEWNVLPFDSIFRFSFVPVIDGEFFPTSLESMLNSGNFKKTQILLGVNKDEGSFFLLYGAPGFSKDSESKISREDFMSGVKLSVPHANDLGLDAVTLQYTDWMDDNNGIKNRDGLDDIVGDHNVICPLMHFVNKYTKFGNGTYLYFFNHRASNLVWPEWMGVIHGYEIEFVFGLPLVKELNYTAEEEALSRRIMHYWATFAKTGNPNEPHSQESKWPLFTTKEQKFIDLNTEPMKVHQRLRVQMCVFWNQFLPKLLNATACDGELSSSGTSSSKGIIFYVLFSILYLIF

The term Ki denotes the dissociation constant of the complex between target and ligand, obtained from inhibition or displacement. Higher therefore signals a looser hold on the target. Regarding `C[C@@H](c1cccc(O)c1)N(C)C` [3-[1-(dimethylamino)ethyl]phenol], the Ki in assay [1] came to 33 µM; in assay [2], 0.7 µM.
